Experimental data published in patent EP0451422A1, “Pharmaceutically active fluoromethyltyrosine compounds” (MERRELL DOW PHARMACEUTICALS INC., priority 1990, dated 1991).

Molecular target: T1, tyrosine hydroxylase (Mus musculus, UniProt P24529)
T1 construct: from tissue; host or cells: living mice
Assay: In vivo inhibition of tyrosine hydroxylase (cortical norepinephrine levels in mice, HPLC with electrochemical detection)
Conditions: mice injected intraperitoneally; cerebral cortices removed six hours later; norepinephrine in tissue; dose not given; control 198.2 +/- 18.4 ng/g
Experimental: The tyrosine hydroxylase inhibitory properties of the compounds of this invention can readily be determined by standard and well known procedures. For example, determination of tyrosine hydroxylase inhibition is exemplified by a procedure wherein mice are injected intraperitoneally with a test compound, and six hours later the mice are sacrificed, the cerebral cortices removed and frozen on dry ice. The levels of norepinephrine in the tissue are measured by HPLC with electrochemical detection, according to the process of Dudley, et al, J. Pharmacol. Exp. Ther., 217, 834-840 (1981). Reduction in cortical norepinephrine levels indicates effective, in vivo inhibition of tyrosine hydroxylase. The following Table I illustrates the decreased levels of norepinephrine after treatment with a compound of this invention (2-fluoromethyl tyrosine) in relation to levels of norepinephrine present after treatment with a known inhibitor (alpha-methyl-p-tyrosine), and as compared to the amount of norepinephrine produced without treatment with a test compound (control).

T1 sequence (P24529 whole entry): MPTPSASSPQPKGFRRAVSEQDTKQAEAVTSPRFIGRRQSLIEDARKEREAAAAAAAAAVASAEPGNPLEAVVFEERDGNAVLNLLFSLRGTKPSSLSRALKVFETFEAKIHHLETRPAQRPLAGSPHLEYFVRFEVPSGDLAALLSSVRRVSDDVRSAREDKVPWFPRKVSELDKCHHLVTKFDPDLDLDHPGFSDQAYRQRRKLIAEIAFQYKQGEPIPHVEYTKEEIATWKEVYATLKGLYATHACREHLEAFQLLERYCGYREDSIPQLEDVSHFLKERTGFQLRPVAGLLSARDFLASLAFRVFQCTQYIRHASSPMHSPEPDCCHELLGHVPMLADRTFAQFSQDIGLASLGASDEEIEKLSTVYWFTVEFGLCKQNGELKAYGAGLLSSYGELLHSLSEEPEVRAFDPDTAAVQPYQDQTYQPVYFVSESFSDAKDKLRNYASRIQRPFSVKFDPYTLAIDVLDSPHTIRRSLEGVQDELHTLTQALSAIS

NOREPINEPHRINE	SMILES
124.9 ± 11.4 ng/g	N[C@@H](Cc1ccc(O)cc1CF)C(=O)O [2-fluoromethyl-tyrosine, 2-Fluoromethyltyrosine]
115.7 ± 18.6 ng/g	CC(N)(Cc1ccc(O)cc1)C(=O)O (stereo not drawn) [α-methyl-p-tyrosine]
